Results on 62 compounds are retold here after ChEMBL document CHEMBL1157539, “Thousands of chemical starting points for antimalarial lead identification” (Nature, 2010).

Each structure is given as a SMILES string.

The test system of this test is Plasmodium falciparum. Nature of the test: GSK_TCMDC: Inhibition of Plasmodium falciparum 3D7 in whole erythrocytes, using parasite LDH activity as an index of growth. In kind it is functional, organism-based. The settings on record: Plasmodium falciparum, 3D7.

The compound `O=C(Nc1ccc(Cl)cc1F)N[C@H]1CCN(CCCCCNC(=O)C2CC2c2ccc(Cl)c(Cl)c2)C1` (some centres not stated) displayed an XC50 of 1090 nM. Regarding `COc1ccc(CCNC(C)Cc2ccc(C(=O)Nc3ccc(CC(C)NCCc4cccc(Cl)c4)cc3)cc2)cc1` (configuration not stated), the XC50 is 248 nM. In turn, `CCOC(=O)c1cc(C(=O)NCCCCN2CCC(c3ccc(CC)cc3OCC)CC2)ccc1-c1ccc(C(F)(F)F)cc1` returned an XC50 of 615 nM.

`c1ccc(-n2cncn2)cc1`: the XC50 was 591 nM. `Cc1cc(F)ccc1[C@H]1CNCCN1C(=O)N(C)[C@@H](C)c1cc(C(F)(F)F)cc(C(F)(F)F)c1` returned an XC50 of 232 nM. With `N=C(N)c1ccc(C(=O)Nc2cccc(C(=N)N)c2)cc1` the figure was 1040 nM; with `O=C(/C=C/c1ccc(Cl)c(Cl)c1)N1CCC(CN2CCC(c3c[nH]c4cnccc34)CC2)CC1`, 219 nM. With `FC(F)(F)c1ccc2[nH]c(-c3ccc(-c4cccc(CNCC5CCCO5)c4)s3)nc2c1` (configuration not stated), the XC50 is 367 nM.

Consider `Cn1cc(C2CCN(CCCCNC(=O)c3sc(-c4ccc(C(F)(F)F)cc4)nc3CO)CC2)c2ccccc21`, for which the XC50 is 1060 nM. For `O=C(Cn1c(CCc2cccc(F)c2F)cc(=O)c2cccnc21)N(CCn1ccnc1)Cc1ccc(-c2ccc(C(F)(F)F)cc2)cc1`, the XC50 is 672 nM. With `Cc1[nH]c(C)c(-c2ccc(-c3ccc(C(F)(F)F)cc3C(F)(F)F)nc2)c(=O)c1Br` the figure was 187 nM; with `O=C(NC1CCCCN(Cc2ccccc2O)C1)c1cc(F)cc(F)c1` (configuration not stated), 1170 nM. Compound `CCn1c(-c2nonc2N)nc2c(-c3cccc(Cl)c3)ncc(OCCCNCc3cnc(C)nc3N)c21` returned an XC50 of 1010 nM. `Fc1cc(Cl)ccc1Nc1ccnc2cc(-c3ccc(CNCCN4CCOCC4)o3)ccc12` came in with an XC50 of 277 nM. For `Cc1ccc(F)cc1-c1cc(N2CCCN(C(=O)c3ccc(Br)o3)CC2)ncn1`, the XC50 turned out to be 1430 nM. `O=C(NCCCCN1CCC(c2c[nH]c3ccccc23)CC1)c1sc(-c2ccc(C(F)(F)F)cc2)nc1CO`: the XC50 was 1200 nM. With `CCC[C@@H]([C@@H](CC1CCC(C)CC1)C(=O)N[C@@H](CCCCNC(=O)c1ccccn1)C(=O)Nc1nccs1)N(O)C=O` (some centres not stated) the figure was 51.3 nM; with `O=C(Nc1ccc(-c2nc3ccccc3[nH]2)cc1)C1CCCN(C2CCC2)C1` (configuration not stated), 1350 nM. `O=c1cc(NCCCN(Cc2ccccc2)Cc2ccccc2)[nH]c2ccccc12` gave an XC50 of 577 nM. With `CCN(CC)/C(=N\C(=N)NCCCCCCNC(=N)/N=C(\Nc1ccc(Cl)cc1)N(CC)CC)Nc1ccc(Cl)cc1`, the XC50 was 927 nM. `COc1cc(Nc2nccc(-c3c(-c4cccc(NC(=O)c5c(F)cccc5F)c4)nn4ncccc34)n2)cc(OC)c1OC` gave an XC50 of 32.6 nM. Consider `O=C(Nc1cccc(C(F)(F)F)c1)c1ccc(S(=O)(=O)NCC2CCCN(CC3CCCCC3)C2)cc1` (configuration not stated), for which the XC50 is 899 nM. With `COCc1ccccc1C(=O)NCCOc1cc(C)cc(C)c1` the figure was 353 nM; with `COc1ccc2c(=NN=Cc3ccccc3Cl)cc(C)[nH]c2c1`, 373 nM. In turn, `Fc1ccc2nc(Nc3nc(-c4ccccn4)cs3)sc2c1` yielded an XC50 of 560 nM. For the compound `CCCCCN1CCC(NC(=O)c2ccc(C(=O)Nc3ccc(C(C)C)cc3)cc2)C1` (configuration not stated), the XC50 worked out at 954 nM.

Consider `O=C(NCc1ccc(F)cc1)c1cc(Br)cc(N2CCN(c3ccncc3)CC2)c1`, for which the XC50 is 1230 nM. On to `COc1ccc(Cc2c(C)nc3nc(N)nc(N)c3c2C)cc1OC`, for which the XC50 is 912 nM. Turning to `Cc1cccc2nc(-c3ccc(-c4cccc(NC(=O)c5cncn5C)c4)cc3)[nH]c12`, the XC50 stood at 861 nM. With `Cc1ccc(NC(=O)Nc2ccc(Cl)cc2)cc1-c1cccc(C(=O)Nc2ccc(F)cc2)c1` the figure was 735 nM; with `CN1CCC(Oc2ccc(CN3CC[C@H](NC(=O)c4ccc(Cl)c(Cl)c4)C3)cc2Cl)C1` (some centres not stated), 882 nM. As to `N#Cc1ccc2c(c1)CN(C1CCC(NC(=O)/C=C/c3cc(C(F)(F)F)cc(C(F)(F)F)c3)CC1)CCC2` (configuration not stated), the XC50 came out at 1390 nM. `C[C@H](Cc1ccc(OCCCCOc2ccc(C[C@@H](C)NC[C@H](O)c3cccc(Cl)c3)cc2)cc1)NC[C@H](O)c1cccc(Cl)c1` yielded an XC50 of 756 nM. Regarding `CCOC(=O)COc1cccc(CNc2ccc3nc(N)nc(N)c3c2)c1`, the XC50 amounted to 408 nM. Consider `Cc1ccc(C)c(NC(=O)NC2CCN(c3ccnc(Nc4ccc(F)cc4)n3)C2)c1` (configuration not stated), for which the XC50 worked out at 675 nM.

Turning to `CCCCc1ccc2[nH]c(NC(=O)OC)nc2c1` [PARBENDAZOLE], the XC50 came out at 683 nM.

In turn, `COc1ccc(C[C@H]2NC[C@H](O)[C@H]2OC(C)=O)cc1` [ANISOMYCIN] came in with an XC50 of 138 nM. On to `CCOC(=O)NCCSC(C)(C)[C@H](NC(=O)[C@H](Cc1cc2ccccc2s1)[C@H](CC)N(O)C=O)C(=O)Nc1nccs1`, for which the XC50 was determined as 296 nM.

The compound `COC(=O)c1cccc(CNCc2cccc(-c3ccc(-c4nc5cccc(C)c5[nH]4)s3)c2)c1` returned an XC50 of 211 nM. With `CN(C)c1ccc(-c2csc(C(=O)NC3CCN(CCC(C)(C)C)C3)c2)cc1` (configuration not stated) the figure was 971 nM; with `COc1ccc2[nH]c(C)cc(=NN=Cc3ccccc3Cl)c2c1`, 601 nM; with `COc1cc2nc(C)nc(Nc3ccc(Cc4ccccc4)cc3)c2cc1OC`, 730 nM.

The compound `O=C(O)CCSc1ncnc2[nH]cnc12` displayed an XC50 of 129 nM. Take `O=C(Nc1cccc(-c2ccc(-c3nc4cc(F)ccc4[nH]3)cc2)c1)c1cccnc1`: the XC50 turned out to be 612 nM. `CO/C(=C\C=C\c1cc2cc(Cl)c(Cl)cc2[nH]1)C(=O)NC1CC2CCC(C1)N2C` (configuration not stated) displayed an XC50 of 1030 nM. Compound `COc1ccccc1N(C)CCNc1cc(C)nc(Nc2ccccc2)n1` had an XC50 of 1070 nM. Compound `COc1ccc(C2CC(=O)C3=C(C2)NC(C)=C(C(=O)OC(C)C)C3c2cccc(O)c2)cc1OC` (configuration not stated) yielded an XC50 of 785 nM. On to `Cc1ccc(NC(=O)c2ccc3ncccc3c2)cc1OC1CCN(Cc2ccc(F)cc2)C1` (configuration not stated), for which the XC50 was found to be 1360 nM.

As for `Cn1nc(-c2cccc(CN[C@@H]3CCc4ccc(O)cc43)c2)c2cnc(NC3CCCC3)nc21`, the XC50 was determined as 736 nM. With `CCN(CC)c1ccccc1CNC(=O)c1cc(Cl)c(N)cc1OC`, the XC50 amounted to 213 nM. Turning to `Cn1cnc(CCNC(=O)c2cccc(-c3csc(-c4nc5ccccc5[nH]4)c3)c2)c1`, the XC50 was 599 nM. With `Cc1cc(C(F)(F)F)cc(-n2ncc(-c3ccc(C(=O)NCc4ccccc4N)cc3)c2N)n1`, the XC50 came to 453 nM. With `Cc1cccc2nc(-c3cccc(-c4cccc(CNC(C)C)c4)c3)[nH]c12` the figure was 336 nM; with `CC1(C)NC(N)=NC(=N)N1OCCCc1cc(Cl)c(Cl)cc1Cl`, 3.2 nM; with `CN(C)Cc1cccc(-c2ccc(NC(=O)c3ccc4c(=O)n(CCN5CCCCC5)cnc4c3)cc2)c1`, 650 nM. For the compound `O=C(N[C@H]1CCN(CCc2ccc(O[C@H]3CCNC3)cc2)C1)c1ccc(Cl)c(Cl)c1`, the XC50 turned out to be 828 nM. `CN1CCN(c2ccnc3ccc(NC(=O)Cc4ccc(-c5ccncc5)c5ccccc45)cc23)CC1` had an XC50 of 203 nM. Compound `CCOc1ccc(-c2nonc2NC(=O)CC(C)C)cc1OCC` gave an XC50 of 977 nM. As to `CCc1sc(N2CCN(C)CC2)nc1C(=O)Nc1ccc(F)cc1C(F)(F)F`, the XC50 came to 178 nM.

The compound `CC[C@H](C)CNC(=O)c1cncc(-c2ccc(CN3CCC(N4CCCC4)CC3)cc2)c1` registered an XC50 of 968 nM.

In turn, `CCOc1cc2ncnc(Nc3ccc(OCc4c(Cl)cccc4Cl)c(OC)c3)c2cc1OCC` registered an XC50 of 1050 nM. With `COc1cccc(Nc2nc(Nc3cccc(C#N)c3)cc(C(F)(F)F)n2)c1` the figure was 834 nM.
